Measurements: patent US9581729B2, “Compound, photosensitive resin composition comprising the same and color filter” (Samsung SDI Co., Ltd., priority 2015, dated 2017)

Assay: Solubility in dilution solvent (PGMEA)
Type: physicochemical
Conditions: 25° C., 100 rpm, 1 hour
Experimental: A dilution solvent (PGMEA) is respectively added to 0.5 g of each compound according to Synthesis Examples 6 to 13 and Comparative Synthesis Examples 1 and 2, and each solution is agitated with a mixrotor (Mixrotor VMR-5, Iuchi Seieido Co., Ltd.) at 25° C. and 100 rpm for 1 hour, and solubility result of each compound is provided in Table 1. Solubility Evaluation Reference Dissolution of a compound (a solute) in an amount of greater than or equal to 10 wt % based on the total weight of the dilution solvent: ∘ Dissolution of a compound (a solute) in an amount ranging from greater than or equal 5 wt % and less than 10 wt % based on the total weight of the dilution solvent: Δ Dissolution of a compound (a solute) in an amount ranging from less than 5 wt % based on the total weight of the dilution solvent: X

SMILES	Solubility
CCCCCOc1c(Cl)c(Cl)c2c(c1Cl)C1=NC/2=N\c2c3c(Cl)c(Cl)c(OCCCCC)c(Cl)c3c3[n]2[Zn][n]2/c(c4c(Cl)c(Cl)c(OCCCCC)c(Cl)c4/c2=N/1)=N\C1=NC(=N\3)/c2c(Cl)c(Cl)c(OCCCCC)c(Cl)c21 [Comparative Synthesis Example 2]	Δ (Dissolution of a compound (a solute) in an amount ranging from greater than or equal 5 wt % and less than 10 wt % based on the total weight of the dilution solvent)
Clc1c(Cl)c2c(c(Cl)c1Oc1ccccc1)/C1=N/c3c4c(Cl)c(Cl)c(Oc5ccccc5)c(Cl)c4c4[n]3[Zn][n]3/c(c5c(Cl)c(Cl)c(Oc6ccccc6)c(Cl)c5/c3=N/C2=N1)=N\C1=NC(=N\4)/c2c(Cl)c(Oc3ccccc3)c(Cl)c(Cl)c21 [Comparative Synthesis Example 1]	Δ (Dissolution of a compound (a solute) in an amount ranging from greater than or equal 5 wt % and less than 10 wt % based on the total weight of the dilution solvent)
